pKd: −log10 of the molar value.
Molecular target: Induced myeloid leukemia cell differentiation protein Mcl-1 (Homo sapiens, UniProt Q07820)
Test: Binding affinity to MCL1 (unknown origin) assessed as inhibition of Mcl1-FAMbid protein-protein interaction after 1 min by fluorescence polarization assay

Induced myeloid leukemia cell differentiation protein Mcl-1, sequence (Q07820 whole entry): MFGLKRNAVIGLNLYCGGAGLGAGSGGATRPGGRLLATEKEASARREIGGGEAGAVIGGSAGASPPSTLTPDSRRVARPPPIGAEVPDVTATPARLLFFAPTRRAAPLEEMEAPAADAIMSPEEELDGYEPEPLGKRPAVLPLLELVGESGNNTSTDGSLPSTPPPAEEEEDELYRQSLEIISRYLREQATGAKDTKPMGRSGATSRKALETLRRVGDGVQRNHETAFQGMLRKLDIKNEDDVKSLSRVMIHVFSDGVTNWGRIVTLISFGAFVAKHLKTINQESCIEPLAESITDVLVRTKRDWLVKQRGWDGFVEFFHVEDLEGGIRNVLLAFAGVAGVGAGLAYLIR

With O=C(O)c1cc2ccccc2n1S(=O)(=O)c1ccc(OCc2cccc(Cl)c2)cc1 the pKd was 6.32.

Source: ChEMBL document CHEMBL4433198, “Fragment-to-Lead Medicinal Chemistry Publications in 2017” (J Med Chem, 2019)
